Reference: patent US12398093B2, “Compounds and methods for treating inflammatory disorders” (Board of Supervisors of Louisiana State University and …, priority 2019, dated 2025)

Molecular target: T1, 5-HT2AR-Tango construct (Homo sapiens, UniProt P28223)
T1 construct: expressed in transfected cells; host or cells: HTLA cells (transient transfection)
Assay: β-arrestin-2 recruitment, PRESTO-Tango assay in HTLA cells
Type: cell-based
Details: not given

T1 sequence (P28223 whole entry, added parts left off): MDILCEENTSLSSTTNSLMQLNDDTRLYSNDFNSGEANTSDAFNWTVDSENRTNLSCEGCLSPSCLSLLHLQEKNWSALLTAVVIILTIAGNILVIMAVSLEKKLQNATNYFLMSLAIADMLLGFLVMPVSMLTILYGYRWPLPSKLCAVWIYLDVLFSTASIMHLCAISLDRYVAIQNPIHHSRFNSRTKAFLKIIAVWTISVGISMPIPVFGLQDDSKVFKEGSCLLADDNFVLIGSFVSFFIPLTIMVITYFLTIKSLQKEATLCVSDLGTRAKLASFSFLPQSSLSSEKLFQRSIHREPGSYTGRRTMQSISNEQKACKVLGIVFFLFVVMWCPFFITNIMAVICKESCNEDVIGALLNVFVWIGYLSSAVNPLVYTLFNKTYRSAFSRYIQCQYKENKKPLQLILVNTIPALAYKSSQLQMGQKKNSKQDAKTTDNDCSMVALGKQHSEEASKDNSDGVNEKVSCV
T1 sequence (P32121 whole entry partner): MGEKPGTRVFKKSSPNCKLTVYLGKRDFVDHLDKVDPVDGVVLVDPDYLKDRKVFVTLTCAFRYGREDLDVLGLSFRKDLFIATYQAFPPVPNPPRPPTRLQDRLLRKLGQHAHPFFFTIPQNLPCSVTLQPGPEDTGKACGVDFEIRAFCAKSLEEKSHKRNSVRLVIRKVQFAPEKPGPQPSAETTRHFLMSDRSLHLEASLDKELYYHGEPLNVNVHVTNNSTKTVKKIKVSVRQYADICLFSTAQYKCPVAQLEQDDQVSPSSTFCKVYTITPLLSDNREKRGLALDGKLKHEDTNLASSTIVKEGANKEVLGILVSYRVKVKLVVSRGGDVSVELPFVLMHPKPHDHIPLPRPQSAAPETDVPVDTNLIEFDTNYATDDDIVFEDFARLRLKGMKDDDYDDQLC

Row | Structure (SMILES) | EC50 [nM]
1 | COc1cc(CC(C)N)c(OC)cc1CC(C)C (stereo not drawn) [DOiBu] | 5.89

Same assay, conditions: HTLA; read-out: EMAX (%) beta arrestin recruitment

Row | Structure (SMILES) | Emax [%]
2 | COc1cc(CC(C)N)c(OC)cc1CC(C)C (stereo not drawn) [DOiBu] | 70.2

Same assay, conditions: Table 5

Row | Structure (SMILES) | pEC50 beta arrestin recruitment
3 | COc1cc(C(C)C)c(OC)cc1CCN [2C-iP] | 7.8
4 | COc1cc(CCN)c(OC)cc1Br [2C-B] | 5.99
5 | COc1cc(C(C)C)c(OC)cc1CC(C)N (stereo not drawn) [DOiP] | 8.24
6 | COc1ccc(OC)c(CCN)c1 [2C-H] | 7.07

Same assay, conditions: Table 5; percentage of 5-HT response

Row | Structure (SMILES) | EMAX (%) beta arrestin recruitment [%]
7 | COc1cc(C(C)C)c(OC)cc1CCN [2C-iP] | 3.46
8 | COc1cc(CCN)c(OC)cc1Br [2C-B] | 39.46
9 | COc1cc(C(C)C)c(OC)cc1CC(C)N (stereo not drawn) [DOiP] | 20.40
10 | COc1cc(C[C@@H](C)N)c(OC)cc1Br [R-DOB] | 98.14
11 | COc1ccc(OC)c(C[C@@H](C)N)c1 [R-2,5-DMA] | 65.51
12 | COc1ccc(OC)c(CCN)c1 [2C-H] | 10.98

Molecular target: T2, human 5-HT2A receptor (Homo sapiens, UniProt P28223)
T2 construct: expressed in transfected cells
Assay: Gq-mediated calcium transients (calcium mobilization), Fluo-4, HEK cells
Type: cell-based
Details: not given

T2 sequence (P28223 whole entry): as the sequence (P28223 whole entry, added parts left off) above

Row | Structure (SMILES) | EC50 [nM]
13 | COc1cc(CC(C)N)c(OC)cc1CC(C)C (stereo not drawn) [DOiBu] | 4.47
14 | COc1cc(CC(C)(C)C)c(OC)cc1CCN [2C-NP] | 155

Same assay, conditions: HEK293, read-out: EMAX (%) calcium mobilization

Row | Structure (SMILES) | Emax [%]
15 | COc1cc(CC(C)N)c(OC)cc1CC(C)C (stereo not drawn) [DOiBu] | 90.6
16 | COc1cc(CC(C)(C)C)c(OC)cc1CCN [2C-NP] | 76

Same assay, conditions: Table 4

Row | Structure (SMILES) | pEC50 calcium mobilization
17 | COc1cc(C(C)C)c(OC)cc1CCN [2C-iP] | 7.59
18 | COc1cc(CCN)c(OC)cc1Br [2C-B] | 8.11
19 | COc1cc(CCN)c(OC)cc1I [2C-I] | 8.14
20 | COc1cc(C(C)C)c(OC)cc1CC(C)N (stereo not drawn) [DOiP] | 8.29
21 | COc1ccc(OC)c(CCN)c1 [2C-H] | 6.34

Same assay, conditions: Table 4; percentage of 5-HT response

Row | Structure (SMILES) | EMAX (%) calcium mobilization [%]
22 | COc1cc(C(C)C)c(OC)cc1CCN [2C-iP] | 52.07
23 | COc1cc(CCN)c(OC)cc1Br [2C-B] | 78.00
24 | COc1cc(CCN)c(OC)cc1I [2C-I] | 72.80
25 | COc1cc(C(C)C)c(OC)cc1CC(C)N (stereo not drawn) [DOiP] | 73.17
26 | COc1cc(C[C@@H](C)N)c(OC)cc1Br [R-DOB] | 79.80
27 | COc1ccc(OC)c(C[C@@H](C)N)c1 [R-2,5-DMA] | 108.38
28 | COc1ccc(OC)c(CCN)c1 [2C-H] | 69.50

System: mice
Assay: Ovalbumin allergic asthma assay (PenH), nebulized inhaled drug, mice (FIG. 2C)
Type: in vivo
Details: 1.0 mg/kg (FIG. 2C)
Source text: (§1) A modification of the ovalbumin model of allergic asthma and whole body plethysmography protocol as described in Nau et al. (Am. J. Physiol. Lung Cell Mol. Physiol. 2015, 308(2): L191-L198; incorporated herein by reference) was used to determine ΔPenh, a measure of airways hyperresponsiveness (AHR), in response to methacholine challenge in adult male Brown Norway rats. Results, shown in FIGS. 2A-2G, represent PenH change measured in the ovalbumin allergic asthma assay in rats, with the exception of FIG. 2C, which was measured in mice, for nebulized inhaled drug. Statistics were performed using 2-way ANOVA with Tukey post hoc test for multiple comparisons.

Row | Structure (SMILES) | Prevention of AHR (PenH) in response to OVA
29 | COc1cc(CC(C)N)c(OC)cc1Br (stereo not drawn) [DOB] | did not reduce potency

System: adult male Brown Norway rats
Assay: Ovalbumin allergic asthma model, whole body plethysmography (ΔPenh) after methacholine challenge
Type: in vivo
Details: rats, 0.5 mg/kg, nebulized inhaled drug
Source text: as §1
Allergic asthma is defined as a chronic inflammatory disorder of the airways. This disease is characterized by airway inflammation, persistent airways AHR and intermittent, reversible airways obstruction.
Area under the curve of PenH values (PenH-AUC) in response to incremental doses of metacholine were calculated for each testing groups, naïve, OVA treated, and OVA+DRUG treated animals. A reduction in PenH-AUC values of more than 75% of the control values (OVA alone) was annotated as a strong efficacy. […] Additional to this information are provided the relative to R-DOI EC50 values (ratio) of tested compounds in 5-HT2AR heterologous cell-based calcium transient assay. […] FIG. 3 illustrates the non-correlative nature of the therapeutic efficacy of the phenylethylamines class of compounds against inflammatory-mediated allergen-induced AHR and the reported evidences of the dose necessary for psychoactive disturbances experienced with these compounds in humans or the potency and strength of these compounds to the 5-HT2AR in calcium transients assays.
Inhibition of ΔPenh as a function of 2C-iBu concentration was studied by nebulization nose-only administration of 2C-iBu to male adult Brown Norway rats as described above. Area under the curve for each treatment group at a given dose of 2C-iBu for ΔPenh is plotted on the Y-axis versus concentration of 2C-iBu on the X-axis.

Row | Structure (SMILES) | Prevention of AHR (ΔPenh/PenH) in response to OVA
30 | COc1cc(Br)c(OC)c2c1[C@H](CN)C2 [TCB-2] | reduced PenH, it was still significantly elevated over naive controls
31 | Cl.NCCc1c2c(c(Br)c3c1OCC3)OCC2 [2C-B-Fly.HCl] | significant difference from OVA to naive, and from 2C-B-Fly.HCl+OVA to naive
32 | COc1cc(C(F)(F)F)c(OC)cc1CC(C)N (stereo not drawn) [DOTFM] | significant difference from OVA+DOTFM to naive

Same assay, conditions: rats, 1.0 mg/kg, nebulized inhaled drug

Row | Structure (SMILES) | Prevention of AHR (ΔPenh/PenH) in response to OVA
33 | COc1cc(CCNCc2ccccc2OC)c(OC)cc1I [25I-NBOMe] | reduced potency
